Assay results as given in patent publication US20250230193A1, “CYCLIC COMPOUND HAVING SELECTIVE KRAS INHIBITORY EFFECT ON HRAS AND NRAS” (CHUGAI SEIYAKU KABUSHIKI KAISHA, priority 2022, published 2025).
Where a SMILES comes first, the peptide text is derived from it. Bridges are numbered along the chain shown (N, C = ends). [ ]: non-standard residue; d: D form. The star is where a group is joined. NEtPhe(4-CF3) = CCN[C@@H](Cc1ccc(C(F)(F)F)cc1)C(=O)O; hPhe(3,4-Cl2) = N[C@@H](CCc1ccc(Cl)c(Cl)c1)C(=O)O; NMeGly(cPent) = CN[C@H](C(=O)O)C1CCCC1; NMeD = CN[C@@H](CC(=O)O)C(=O)O; NMeL = CN[C@@H](CC(C)C)C(=O)O; Morpholide = C1CN(*)CCO1; Ac5c = NC1(C(=O)O)CCCC1; Sar = CNCC(=O)O

Key:
[1] = biological target: GDP-bound NRAS wild-type protein (Homo sapiens, UniProt P01111); assay: Binding to NRAS by surface plasmon resonance (SPR), Single Cycle Kinetics; conditions: KD ratio NRAS/KRAS
[2] = biological target: GDP-bound HRAS wild-type protein (Homo sapiens, UniProt P01112); assay: Binding to HRAS by surface plasmon resonance (SPR), Single Cycle Kinetics; conditions: KD ratio HRAS/KRAS
GDP-bound HRAS wild-type protein, sequence (P01112 whole entry): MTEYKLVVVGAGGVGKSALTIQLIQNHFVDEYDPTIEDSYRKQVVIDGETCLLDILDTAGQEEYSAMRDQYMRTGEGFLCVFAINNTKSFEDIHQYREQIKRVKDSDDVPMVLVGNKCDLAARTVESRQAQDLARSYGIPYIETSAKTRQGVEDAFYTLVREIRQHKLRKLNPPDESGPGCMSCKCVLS

GDP-bound NRAS wild-type protein, sequence (P01111 whole entry): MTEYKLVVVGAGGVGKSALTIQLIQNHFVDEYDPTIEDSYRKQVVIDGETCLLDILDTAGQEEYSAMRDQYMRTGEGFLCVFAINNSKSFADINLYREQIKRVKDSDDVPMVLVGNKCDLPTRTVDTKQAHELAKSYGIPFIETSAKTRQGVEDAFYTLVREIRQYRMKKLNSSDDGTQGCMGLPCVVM

SMILES	NRAS/KRAS (ratio of KD value with respect to GDP-bound NRAS wild-type protein to KD value with respect to KRAS) ([1]; SPR)	HRAS/KRAS (ratio of KD value with respect to GDP-bound HRAS wild-type protein to KD value with respect to KRAS) ([2]; SPR)	other results
CCO[C@@H]1C[C@H]2C(=O)NC3(CCC3)C(=O)N(C)[C@@H](C3CCCC3)C(=O)N(C)[C@H](C(=O)N(C)C)CC(=O)N(C)[C@@H](CC3CCCC3)C(=O)N[C@@H]([C@@H](C)CC)C(=O)N(C)CC(=O)N(C)[C@H]3C/C=C\CCN(C3=O)[C@@H](Cc3ccc(C)cc3)C(=O)N(C)CC(=O)N[C@@H](CCc3cc(F)c(CC)c(OC)c3)C(=O)N2C1 [PP2674]	–	–	NRAS/KRAS (ratio of KD value with respect to GDP-bound NRAS wild-type protein to KD value with respect to KRAS) ([1]; class symbols): A (a compound having 10 or more and less than 20 is denoted as A); HRAS/KRAS (ratio of KD value with respect to GDP-bound HRAS wild-type protein to KD value with respect to KRAS) ([2]; class symbols): A (a compound having 10 or more and less than 20 is denoted as A)
CC[C@H](C)[C@@H]1NC(=O)[C@H](CC(C)C)N(C)C(=O)C[C@@H](C(=O)N2CCOCC2)N(C)C(=O)[C@H](C2CCCC2)N(C)C(=O)C2(CCCC2)NC(=O)[C@@H]2CCCN2C(=O)[C@H](CCc2ccc(C(F)(F)F)c(Cl)c2)NC(=O)CN(C)C(=O)[C@H](Cc2ccc(F)cc2)N2CCCC[C@@H](C2=O)N(C)C(=O)CN(C)C1=O [PP0530]	C (A compound having a KD ratio of 0.1 or more and less than 3 is denoted as C)	B (a compound having 3 or more and less than 10 is denoted as B)	–
CCCN1C(=O)[C@H](C2CCCC2)N(C)C(=O)C2(CCC2)NC(=O)[C@@H]2C[C@@H](OCC)CN2C(=O)[C@H](CCc2cc(F)c(C(F)(F)F)c(F)c2)NC(=O)CN(C)C(=O)[C@H](Cc2ccc(C(F)(F)F)cc2)N2CCCC[C@@H](C2=O)N(C)C(=O)CN(C)C(=O)[C@H]([C@@H](C)CC)NC(=O)[C@H](CC(C)C)N(C)C(=O)C[C@H]1C(=O)N1CCOCC1 [PP0649]	C (A compound having a KD ratio of 0.1 or more and less than 3 is denoted as C)	B (a compound having 3 or more and less than 10 is denoted as B)	–
CC[C@H](C)[C@@H]1NC(=O)[C@H](CC(C)C)N(C)C(=O)C[C@@H](C(=O)N2CCOCC2)N(C)C(=O)[C@H](C2CCCC2)N(C)C(=O)C2(CCC2)NC(=O)[C@@H]2CCCN2C(=O)[C@H](CCc2cc(F)c(C(F)(F)F)c(F)c2)NC(=O)CN(C)C(=O)[C@H](Cc2ccc(C(F)(F)F)cc2)N2CCCC[C@@H](C2=O)N(C)C(=O)CN(C)C1=O [PP0560]	B (a compound having 3 or more and less than 10 is denoted as B)	B (a compound having 3 or more and less than 10 is denoted as B)	–
CCO[C@@H]1C[C@H]2C(=O)NC3(CCC3)C(=O)N(C)[C@@H](C3CCCC3)C(=O)N(C)[C@H](C(=O)N(C)C)CC(=O)N(C)[C@@H](CC(C)(C)C)C(=O)N[C@@H]([C@@H](C)CC)C(=O)N(C)CC(=O)N(C)[C@H]3CCCCCN(C3=O)[C@@H](Cc3ccc(C(F)(F)F)cc3)C(=O)N(C)CC(=O)N[C@@H](CCc3cc(F)c(C(F)(F)F)c(F)c3)C(=O)N2C1 [PP0669]	B (a compound having 3 or more and less than 10 is denoted as B)	B (a compound having 3 or more and less than 10 is denoted as B)	–
CCC[C@H]1C(=O)N[C@@H]([C@@H](C)CC)C(=O)N(C)CC(=O)N(C)[C@H]2C/C=C\CCN(C2=O)[C@@H](Cc2ccc(C(F)(F)F)cc2)C(=O)N(C)CC(=O)N[C@@H](CCc2cc(Cl)c3sccc3c2)C(=O)N2C[C@H](OCC)C[C@H]2C(=O)NC2(CC(C)(C)C2)C(=O)N(C)[C@@H](C2CCCC2)C(=O)N(C)[C@H](C(=O)N(C)C)CC(=O)N1C [PP2946]	–	–	NRAS/KRAS (ratio of KD value with respect to GDP-bound NRAS wild-type protein to KD value with respect to KRAS) ([1]; class symbols): A (a compound having 10 or more and less than 20 is denoted as A); HRAS/KRAS (ratio of KD value with respect to GDP-bound HRAS wild-type protein to KD value with respect to KRAS) ([2]; class symbols): A (a compound having 10 or more and less than 20 is denoted as A)
CC[C@H](C)[C@@H]1NC(=O)[C@H](CC(C)C)N(C)C(=O)C[C@@H](C(=O)N2CCOCC2)N(C)C(=O)[C@H](C2CCCC2)N(C)C(=O)C2(CCCC2)NC(=O)[C@@H]2CCCN2C(=O)[C@H](CCc2ccc(Cl)c(Cl)c2)NC(=O)CN(C)C(=O)[C@H](Cc2ccc(C(F)(F)F)cc2)N(CC)C(=O)CN(C)C(=O)CN(C)C1=O [PP0237] ([NMeL]I[Sar][Sar][NEtPhe(4-CF3)][Sar][hPhe(3,4-Cl2)]P[Ac5c][NMeGly(cPent)][NMeD]-Morpholide; lactam N-11)	–	–	NRAS/KRAS (ratio of KD for GDP-bound NRAS wild-type to KD for KRAS) ([1]; SPR): B (a compound having 3 or more and less than 10 is denoted as B); HRAS/KRAS (ratio of KD for GDP-bound HRAS wild-type to KD for KRAS) ([2]; SPR): C (A compound having a KD ratio of 0.1 or more and less than 3 is denoted as C)
